Measured values as given in ChEMBL document CHEMBL1134747, “Synthesis and antifungal activities of novel 1,3-beta-D-glucan synthase inhibitors. Part 1” (Bioorg Med Chem Lett, 2001).
Values after ≈ are worked out from the molar mass of the structure shown.

Experiments:
Beta-1,3-glucan synthase = Beta-1,3-glucan synthase (Candida albicans, UniProt O13428); assay: Inhibition of 1,3-beta-D-glucan synthase (GS) from candida albicans
Mus musculus = assay: In vivo antifungal activity against systemic candidiasis in mouse model after a single iv administration; type: functional
Candida albicans [1] = assay: In vitro antifungal activity against Candida albicans […] in the absence of 80% calf serum; type: functional, organism-based
Candida albicans [2] = assay: In vitro antifungal activity against Candida albicans CY1002 in the presence of 80% calf serum; type: functional, organism-based
[3] = Hepatotoxicity using isolated ICR mouse hepatocytes by inclusion body formation assay (In Vitro); type: functional, cell-based; details: Hepatocyte
[4] = Hepatotoxicity determined using isolated ICR mouse hepatocytes by inclusion body formation assay (In Vitro); type: functional, cell-based; details: Hepatocyte

Beta-1,3-glucan synthase, sequence (O13428 whole entry): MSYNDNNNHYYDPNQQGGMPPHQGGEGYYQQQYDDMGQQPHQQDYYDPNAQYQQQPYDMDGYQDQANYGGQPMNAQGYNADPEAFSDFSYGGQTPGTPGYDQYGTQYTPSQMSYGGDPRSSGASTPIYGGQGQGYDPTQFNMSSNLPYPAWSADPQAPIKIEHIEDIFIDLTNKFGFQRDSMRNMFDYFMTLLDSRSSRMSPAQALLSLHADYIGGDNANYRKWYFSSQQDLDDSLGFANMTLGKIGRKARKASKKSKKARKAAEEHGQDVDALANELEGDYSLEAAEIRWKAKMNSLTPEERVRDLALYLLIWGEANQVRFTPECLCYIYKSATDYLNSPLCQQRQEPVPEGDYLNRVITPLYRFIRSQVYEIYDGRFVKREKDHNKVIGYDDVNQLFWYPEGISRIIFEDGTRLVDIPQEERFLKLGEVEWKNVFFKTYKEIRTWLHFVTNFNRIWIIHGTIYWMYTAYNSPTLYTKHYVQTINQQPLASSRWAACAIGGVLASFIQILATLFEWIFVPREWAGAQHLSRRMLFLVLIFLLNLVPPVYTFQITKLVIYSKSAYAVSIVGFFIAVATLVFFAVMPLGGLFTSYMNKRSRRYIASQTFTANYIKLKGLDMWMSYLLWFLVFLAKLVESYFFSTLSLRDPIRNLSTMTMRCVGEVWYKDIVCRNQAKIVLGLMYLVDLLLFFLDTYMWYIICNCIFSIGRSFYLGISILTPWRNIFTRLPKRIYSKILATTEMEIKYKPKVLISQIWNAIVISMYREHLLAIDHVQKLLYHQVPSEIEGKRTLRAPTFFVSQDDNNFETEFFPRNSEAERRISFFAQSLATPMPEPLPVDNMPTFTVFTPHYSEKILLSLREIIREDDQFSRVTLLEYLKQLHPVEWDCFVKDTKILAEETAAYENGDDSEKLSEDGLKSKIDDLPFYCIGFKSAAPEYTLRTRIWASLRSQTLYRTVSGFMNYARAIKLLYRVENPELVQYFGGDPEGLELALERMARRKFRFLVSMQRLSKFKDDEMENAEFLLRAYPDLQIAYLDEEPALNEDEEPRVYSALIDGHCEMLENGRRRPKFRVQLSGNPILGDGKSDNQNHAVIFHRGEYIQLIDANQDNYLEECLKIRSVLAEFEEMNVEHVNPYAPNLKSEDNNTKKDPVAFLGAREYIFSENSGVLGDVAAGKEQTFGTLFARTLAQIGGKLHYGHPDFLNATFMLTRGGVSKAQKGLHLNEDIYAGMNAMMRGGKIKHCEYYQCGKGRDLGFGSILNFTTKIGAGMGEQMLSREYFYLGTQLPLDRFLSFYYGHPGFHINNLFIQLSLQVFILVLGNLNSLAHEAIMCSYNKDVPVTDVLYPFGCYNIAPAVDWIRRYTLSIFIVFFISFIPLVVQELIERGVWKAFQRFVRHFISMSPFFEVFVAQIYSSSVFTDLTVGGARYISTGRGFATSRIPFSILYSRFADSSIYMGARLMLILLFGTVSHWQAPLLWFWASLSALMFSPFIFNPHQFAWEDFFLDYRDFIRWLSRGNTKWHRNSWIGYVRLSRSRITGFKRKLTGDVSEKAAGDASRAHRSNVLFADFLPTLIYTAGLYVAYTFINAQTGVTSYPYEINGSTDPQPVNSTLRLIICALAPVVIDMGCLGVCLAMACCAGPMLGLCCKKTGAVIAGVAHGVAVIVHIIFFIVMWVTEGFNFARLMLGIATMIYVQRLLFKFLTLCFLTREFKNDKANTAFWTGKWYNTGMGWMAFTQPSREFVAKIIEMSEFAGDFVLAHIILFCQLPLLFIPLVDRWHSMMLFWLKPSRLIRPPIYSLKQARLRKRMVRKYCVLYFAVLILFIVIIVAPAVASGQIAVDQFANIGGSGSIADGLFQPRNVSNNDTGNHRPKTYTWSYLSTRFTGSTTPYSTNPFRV

For `CCCCCCCCCCCCC[C@@H]1CC(=O)N[C@@H]([C@H](C)O)C(=O)N[C@H](C)C(=O)N[C@@H](Cc2ccc(OCc3ccccc3)cc2)C(=O)N[C@@H](C(C)C)C(=O)N2C[C@H](O)C[C@H]2C(=O)N[C@H]([C@@H](C)O)C(=O)N[C@@H]([C@@H](C)O)C(=O)N2CC[C@H](O)[C@H]2C(=O)N[C@@H]([C@H](O)CC(N)=O)C(=O)NCC(=O)N[C@@H]([C@@H](C)O)C(=O)N[C@@H](CCCN)C(=O)O1`, which IC50 (Beta-1,3-glucan synthase) is on record?
The IC50 was greater than 130 nM.

Which IC50 (Beta-1,3-glucan synthase) does the source give for `CCCCCCCCCCCCC[C@@H]1CC(=O)N[C@@H]([C@H](C)O)C(=O)N[C@H](C)C(=O)N[C@@H](Cc2ccc(O)cc2)C(=O)N[C@@H](C(C)C)C(=O)N2C[C@H](O)C[C@H]2C(=O)N[C@@H]([C@@H](C)O)C(=O)N[C@@H]([C@@H](C)O)C(=O)N2CC[C@H](O)[C@H]2C(=O)N[C@@H]([C@H](O)CC(N)=O)C(=O)NCC(=O)N[C@@H]([C@@H](C)O)C(=O)N[C@@H](CCCNC(C)=O)C(=O)O1` here?
The IC50 was 230 nM.

What does the source list for `CCCCCCCCCCCCC[C@@H]1CC(=O)N[C@@H]([C@@H](C)O)C(=O)N[C@H](C)C(=O)N[C@@H](Cc2ccc(O)cc2)C(=O)N[C@@H](C(C)C)C(=O)N2C[C@H](O)C[C@H]2C(=O)N[C@@H]([C@@H](C)O)C(=O)N[C@@H]([C@@H](C)O)C(=O)N2CC[C@H](O)[C@H]2C(=O)N[C@@H]([C@H](O)CC(N)=O)C(=O)NCC(=O)N[C@@H]([C@@H](C)O)C(=O)N[C@H](CCCNC(=O)C(N)CCCN)C(=O)O1` (some centres not stated)?
ED50 (Mus musculus): 0.1 mg/kg; IC50 (Candida albicans [1]): 0.12 µg/mL (≈ 0.0728 µM); IC50 (Candida albicans [2]): 0.33 µg/mL; IC50 (Beta-1,3-glucan synthase): 5 nM; IC50 [3]: 30 µg/mL (≈ 18.2 µM)

For `CCCCCCCCCCCCC[C@@H]1CC(=O)N[C@@H]([C@@H](C)O)C(=O)N[C@H](C)C(=O)N[C@@H](Cc2ccc(O)cc2)C(=O)N[C@@H](C(C)C)C(=O)N2C[C@H](O)C[C@H]2C(=O)N[C@@H]([C@@H](C)O)C(=O)N[C@@H]([C@@H](C)O)C(=O)N2CC[C@H](O)[C@H]2C(=O)N[C@@H]([C@H](O)CC(N)=O)C(=O)NCC(=O)N[C@H]([C@@H](C)O)C(=O)N[C@@H](CCCNC(=O)CN)C(=O)O1`, which IC50 (Beta-1,3-glucan synthase) is on record?
The IC50 was 20 nM.

Which IC50 (Beta-1,3-glucan synthase) does the source give for `CCCCCCCCCCCCC[C@@H]1CC(=O)N[C@@H]([C@@H](C)O)C(=O)N[C@H](C)C(=O)N[C@@H](Cc2ccc(O)cc2)C(=O)N[C@@H](C(C)C)C(=O)N2C[C@H](O)C[C@H]2C(=O)N[C@@H]([C@@H](C)O)C(=O)N[C@@H]([C@@H](C)O)C(=O)N2CC[C@H](O)[C@H]2C(=O)N[C@@H]([C@H](O)CC#N)C(=O)NCC(=O)N[C@@H]([C@@H](C)O)C(=O)N[C@@H](CCN)C(=O)O1` here?
Its IC50 is 19 nM.

For `CCCCCCCCCCCCC[C@@H]1CC(=O)N[C@@H]([C@@H](C)O)C(=O)N[C@H](C)C(=O)N[C@@H](Cc2ccc(O)cc2)C(=O)N[C@@H](C(C)C)C(=O)N2C[C@H](O)C[C@H]2C(=O)N[C@@H]([C@@H](C)O)C(=O)N[C@@H]([C@@H](C)O)C(=O)N2CC[C@H](O)[C@H]2C(=O)N[C@@H]([C@H](O)CC(N)=O)C(=O)NCC(=O)N[C@@H]([C@@H](C)O)C(=O)N[C@@H](CCCN(C)C)C(=O)O1`, which IC50 (Beta-1,3-glucan synthase) is on record?
The IC50 was 45 nM.

With `CCCCCCCCCCCCC[C@@H]1CC(=O)N[C@@H]([C@@H](C)O)C(=O)N[C@H](C)C(=O)N[C@@H](Cc2ccc(O)cc2)C(=O)N[C@@H](C(C)C)C(=O)N2C[C@H](O)C[C@H]2C(=O)N[C@@H]([C@@H](C)O)C(=O)N[C@@H]([C@@H](C)O)C(=O)N2CC[C@H](O)[C@H]2C(=O)N[C@@H]([C@H](O)CC(N)=O)C(=O)NCC(=O)N[C@@H]([C@@H](C)O)C(=O)N[C@@H](CCCO)C(=O)O1` as the compound, how does the IC50 (Beta-1,3-glucan synthase) read?
Its IC50 is greater than 520 nM.

With `CCCCCCCCCCCCC[C@@H]1CC(=O)N[C@@H]([C@@H](C)O)C(=O)N[C@H](C)C(=O)N[C@@H](Cc2ccc(O)cc2)C(=O)N[C@@H](C(C)C)C(=O)N2C[C@H](O)C[C@H]2C(=O)N[C@@H]([C@@H](C)O)C(=O)N[C@@H]([C@@H](C)O)C(=O)N2CC[C@H](O)[C@H]2C(=O)N[C@@H]([C@H](O)CC(N)=O)C(=O)NCC(=O)N[C@@H]([C@@H](C)O)C(=O)N[C@@H](CCCN)C(=O)O1` as the compound, how does the IC50 (Candida albicans [1]) read?
The IC50 was 0.02 µg/mL (≈ 0.013 µM).

What about the IC50 (Candida albicans [2]) of the same compound?
The IC50 was 0.57 µg/mL.

And the IC50 (Beta-1,3-glucan synthase)?
Its IC50 is 12 nM.

What about the IC50 [3] of the same compound?
Its IC50 is 10 µg/mL (≈ 6.52 µM).

With `CCCCCCCCCCCCC[C@@H]1CC(=O)N[C@@H]([C@@H](C)O)C(=O)N[C@H](C)C(=O)N[C@@H](Cc2ccc(O)cc2)C(=O)N[C@@H](C(C)C)C(=O)N2C[C@H](O)C[C@H]2C(=O)N[C@@H]([C@@H](C)O)C(=O)N[C@@H]([C@@H](C)O)C(=O)N2CC[C@H](O)[C@H]2C(=O)N[C@@H]([C@H](O)CC(N)=O)C(=O)NCC(=O)N[C@H]([C@@H](C)O)C(=O)N[C@@H](CCCN(CCN)CCN)C(=O)O1` as the compound, how does the ED50 (Mus musculus) read?
Its ED50 is 0.05 mg/kg.

And the IC50 (Candida albicans [1])?
Its IC50 is 0.1 µg/mL (≈ 0.0617 µM).

What about the IC50 [4] of the same compound?
The IC50 was 10 µg/mL (≈ 6.17 µM).

What about the IC50 (Candida albicans [2]) of the same compound?
Its IC50 is 0.42 µg/mL.

What about the IC50 (Beta-1,3-glucan synthase) of the same compound?
The IC50 was 2 nM.

Which ED50 (Mus musculus) does the source give for `CCCCCCCCCCCCC[C@@H]1CC(=O)N[C@@H]([C@@H](C)O)C(=O)N[C@H](C)C(=O)N[C@@H](Cc2ccc(O)cc2)C(=O)N[C@@H](C(C)C)C(=O)N2C[C@H](O)C[C@H]2C(=O)N[C@@H]([C@@H](C)O)C(=O)N[C@@H]([C@@H](C)O)C(=O)N2CC[C@H](O)[C@H]2C(=O)N[C@@H]([C@H](O)CC(N)=O)C(=O)NCC(=O)N[C@@H]([C@@H](C)O)C(=O)N[C@@H](CCCNC(=O)C(N)CCCN)C(=O)O1` (some centres not stated) here?
Its ED50 is 0.2 mg/kg.

What about the IC50 (Candida albicans [1]) of the same compound?
Its IC50 is 0.08 µg/mL (≈ 0.0485 µM).

And the IC50 (Candida albicans [2])?
The IC50 was 0.47 µg/mL.

And the IC50 (Beta-1,3-glucan synthase)?
Its IC50 is 8 nM.

And the IC50 [3]?
Its IC50 is 10 µg/mL (≈ 6.07 µM).

For `CCCCCCCCCCCCC[C@@H]1CC(=O)N[C@@H]([C@@H](C)O)C(=O)N[C@H](C)C(=O)N[C@@H](Cc2ccc(O)cc2)C(=O)N[C@@H](C(C)C)C(=O)N2C[C@H](O)C[C@H]2C(=O)N[C@@H]([C@@H](C)O)C(=O)N[C@@H]([C@@H](C)O)C(=O)N2CC[C@H](O)[C@H]2C(=O)N[C@@H]([C@H](O)CCN)C(=O)NCC(=O)N[C@@H]([C@@H](C)O)C(=O)N[C@@H](CCN)C(=O)O1`, which ED50 (Mus musculus) is on record?
Its ED50 is 0.04 mg/kg.

And the IC50 (Candida albicans [1])?
Its IC50 is 0.01 µg/mL (≈ 0.00664 µM).

And the IC50 (Candida albicans [2])?
Its IC50 is 0.18 µg/mL.

And the IC50 (Beta-1,3-glucan synthase)?
Its IC50 is 6 nM.

And the IC50 [3]?
The IC50 was 10 µg/mL (≈ 6.64 µM).

With `CCCCCCCCCCCCC[C@@H]1CC(=O)N[C@@H]([C@@H](C)O)C(=O)N[C@H](C)C(=O)N[C@@H](Cc2ccc(OC)cc2)C(=O)N[C@@H](C(C)C)C(=O)N2C[C@H](O)C[C@H]2C(=O)N[C@@H]([C@@H](C)O)C(=O)N[C@@H]([C@@H](C)O)C(=O)N2CC[C@H](O)[C@H]2C(=O)N[C@@H]([C@H](O)CC(N)=O)C(=O)NCC(=O)N[C@@H]([C@@H](C)O)C(=O)N[C@@H](CCCN)C(=O)O1` as the compound, how does the IC50 (Beta-1,3-glucan synthase) read?
The IC50 was 24 nM.

For `CCCCCCCCCCCCC[C@@H]1CC(=O)N[C@@H]([C@@H](C)O)C(=O)N[C@H](C)C(=O)N[C@@H](Cc2ccc(O)cc2)C(=O)N[C@@H](C(C)C)C(=O)N2C[C@H](O)C[C@H]2C(=O)N[C@@H]([C@@H](C)O)C(=O)N[C@@H]([C@@H](C)O)C(=O)N2CC[C@H](O)[C@H]2C(=O)N[C@@H]([C@H](O)CC(N)=O)C(=O)NCC(=O)N[C@@H]([C@@H](C)O)C(=O)N[C@@H](CCCNC(=O)OC(C)(C)C)C(=O)O1`, which ED50 (Mus musculus) is on record?
The ED50 was 0.22 mg/kg.
